According to patent US20150018305A1, “SIRTUIN INDUCER, TISSUE REPAIRING AGENT, HEPATOCYTE GROWTH FACTOR INDUCER, TISSUE HOMEOSTASIS MAINTENANCE AGENT, AND TLR4 AGONIST, HAVING HYALURONIC ACID FRAGMENT AS ACTIVE INGREDIENT” (HYALURONAN RESEARCH INSTITUTE, INC., priority 2012, published 2015):

Key:
[1] = test system: rat bone marrow mesenchymal stem cells; assay: Hydrogen peroxide induced aging of rat bone marrow mesenchymal stem cells, PI dead cell count (Test Example 21); assay type: cell-based; conditions: 2 hours
Procedure: It was investigated whether the process, in which rat bone marrow mesenchymal stem cells experienced cellular aging (increased cell death) when treated with hydrogen peroxide, is affected by treatment with the hyaluronic acid fragment. Specifically, the following test was performed.
Using a DMEM culture medium (made by Wako Pure Chemical Industries, Ltd.), rat bone marrow mesenchymal stem cells were cultured by usual methods at 37° C. under 5% CO2. Hydrogen peroxide was added to the culture medium to a final concentration of 1 μM to bring about stimulation for a 15-minute period, and the culture broth was then transferred to DMEM culture medium containing no added hyaluronic acid fragments; to DMEM culture medium containing hyaluronic acid fragment (L3mer) added to a final concentration of 100 ng/ml; or to DMEM culture medium containing the hyaluronic acid fragment (L3mer) plus TLR4/MD2 added to a final concentration of 10 μg/ml, and cultured for 2 hours.
After 2 hours had passed, PI ([…]), which emits red fluorescence upon uptake into dead cells, was added to the culture medium to a final concentration of 5 μg/ml, and after incubation for 15 minutes, the condition of appearance of dead cells was examined with a fluorescence microscope.

[2] = test system: human neural stem cells (neurospheres); assay: Hydrogen peroxide induced aging of human neural stem cells, microscopy (Test Example 20); assay type: cell-based; conditions: 24 hours
Procedure: It was investigated whether the process, in which human neural stem cells (neurospheres) experienced cellular aging (vacuolar degeneration and hypertrophy) when treated with hydrogen peroxide, is affected by treatment with the hyaluronic acid fragment. Specifically, the following test was performed.
Human neural stem cells (neurospheres) (trade name Gibco Human Neural Stem Cells (H9-Derived) made by Gibco) were cultured in Neurobasal Media (trade name, made by Gibco) culture medium at 37° C. under 5% CO2. Hydrogen peroxide was added to the culture medium to a final concentration of 10 μM to bring about stimulation for a 15-minute period, and the culture broth was then transferred to Neurobasal Media culture medium (made by Gibco) containing no hyaluronic acid fragments; to the same culture medium containing hyaluronic acid fragment (L3mer) in a final concentration of 100 ng/ml; or to the same culture medium containing hyaluronic acid fragment (L3mer) plus TLR4/MD2 added to a final concentration of 10 μg/ml, and cultured for 24 hours.
After 24 hours, the cells were examined with an inverted microscope.

[3] = 100 ng/ml plus TLR4/MD2 10 μg/ml

CC(=O)NC1C(O[C@@H]2OC(C(=O)O)[C@@H](O)C(O)C2O)[C@H](O)C(CO)O[C@H]1O[C@@H]1C(C(=O)O)O[C@@H](OCCCN=[N+]=[N-])C(O)C1O (stereo partly shown) [L3mer]
suppression of cell death with TLR4/MD2 added [1, 3]: inhibited by addition of TLR4/MD2 | hydrogen peroxide-induced cellular aging (increased cell death, dead cells per unit visual field) ([1]; hydrogen peroxide 1 μM, 100 ng/ml, PI staining): suppressed | suppression of cellular aging with TLR4/MD2 added [2, 3]: inhibited by addition of TLR4/MD2 | hydrogen peroxide-induced cellular aging (vacuolar degeneration and hypertrophy) ([2]; hydrogen peroxide 10 μM, 100 ng/ml): suppressed
